Where “and” joins values, the source holds several entries; their conditions need not be identical. Equal values may be shown once. Read-outs that look alike come from different tables or passages of the source.
Columns and labels:
[1] = test system: rLTR4-5′Cy5 (parallel RNA G4); experiment: Ligand-induced fluorescence quenching assay (FQA), rLTR4-5′Cy5; format: binding, HIV-1
Description: Cy5 labelled oligonucleotides were purchased lyophilized and RP-cartridge purified from Eurogentec (Kanaka Eurogentec, Seraing, Belgium). The ligand-induced fluorescence quenching assay was conducted as previously described.[47] A Stratagene Mx3005P instrument was used to carry out the assay in 96-well plates. The filters for excitation and emission were set at 635 nm and 665 nm, respectively. The gain was used at 8×. The labeled oligonucleotide was used at 10 nM, and the buffer was 10 mM lithium cacodylate (pH 7.2), 10 mM KCl, and 90 mM LiCl in a final volume of 50 μL. The oligonucleotide was heated at 90 °C for 5 min and put in ice to anneal. The ligand was added over a range of concentrations between 0 and 80 μM. A competitor, ds26, was also added at 3 or 10 μM. Each experimental condition was tested in triplicate except for the ligand alone with the buffer, which was tested in duplicate. The instrument was programmed to heat the plate for 10 min at 25 °C and measure the fluorescence after 1 min for 5 cycles. The fluorescence of each sample was normalized, and the fluorescence of the ligand alone was subtracted.
We then addressed the binding of the DBA series to the rLTR4 RNA G4. The FRET melting assay was not appropriate for investigating ligand binding to this RNAs due to its high thermal stability (Tm > 72 °C).[26] We have therefore used a ligand-induced fluorescence quenching assay (FQA) to analyse the interaction of the DBAs with either 5′ or 3′ fluorescently labelled RNAs (Fig. S8). Since planar G4-ligands generally stack on an accessible G-quartet,[94–96] we expect the DBAs to also recognize G4s by stacking interactions. To conduct a fluorescence quenching experiment, a CY5 fluorophore is attached on the 3′ or 5′ end of the RNA. […] Thus, upon interaction of the ligand with the G-quartet, the ligand induces the quenching of the fluorescence emission. This test enables determination of the apparent association constants (Ka) of each DBA with the 5′ or 3′ quartet of the G4 structure (Fig. 4, Table S3). […] A similar difference in G-tetrad binding affinities has previously been observed for TMPyP4 and PhenDC3.[47]
The fluorescently labeled oligonucleotides were dissolved at a concentration of 10 nM in 10 mM lithium cacodylate buffer (pH 7.2) with 10 mM KCl and 90 mM LiCl. […] Data are the results of at least three independent experiments in which each data point was performed in duplicate.

[2] = test system: LTR4-FT (parallel DNA G4); experiment: FRET melting assay, LTR4-FT; format: binding, HIV-1; details: ligand 1 μM, DNA 0.2 μM
Description: Doubly labelled oligonucleotides with fluorescein and TAMRA were purchased lyophilized and RP-cartridge purified from Eurogentec (Kanaka Eurogentec, Seraing, Belgium). FRET melting experiments were run on Stratagene Mx3005P real-time PCR equipment in 96-well plates on the DNA sequences listed Table 1. Experiments were performed in 10 mM lithium cacodylate buffer (pH 7.2) and 10 mM KCl and 90 mM LiCl as previously described.[45,46] The DNA concentration was 0.2 μM. The stabilization (ΔT1/2) induced by compounds was calculated as the difference between the Tm of the nucleic acid alone and that measured with a ligand concentration of 1 μM. Data are presented as averages of three independent measurements, each conducted in duplicate (λexc = 492 nm, λem = 516 nm, T interval = 25–95 °C, ramp: 25 °C for 5 min, then 1 °C min^−1, measurements every 1 °C, 8× magnification of the fluorescence signal). The G4 selectivity of the ligands with respect to the duplex was evaluated by determining the Tm values in the presence of 0, 3 or 10 μM of the duplex competitor ds26.
In this assay, we performed thermal denaturation experiments by heating and recording the fluorescence of DNA oligonucleotides doubly labelled with fluorescein and TAMRA fluorophores (Fig. 3 and S7). Ligand binding to the G4 stabilises the structure, resulting in an increase in the half-dissociation temperature of the structure (ΔT1/2). As a first approximation, the higher the ΔT1/2 (ΔT1/2 higher), the higher the affinity of the ligand for the target.[45]
The fluorescently labeled oligonucleotides were dissolved at a concentration of 0.2 μM in 10 mM lithium cacodylate buffer (pH 7.2) with 10 mM KCl and 90 mM LiCl. […] E) Radar plot representation that summarizes the FRET-melting results (ΔT1/2 (°C)) for each ligand in the presence of HIVpro1-FT (green), HIVpro2-FT (grey), LTR4-FT (bleu), and Htel-FT (red). Data are the results of at least three independent experiments in which each data point was performed in duplicate.

HeLa P4 cells = experiment: Cell viability assay (CellTiter 96 AQueous One); format: cell-based; details: read-out: EC50 (cell viability)
[3] = HeLaP4, 24 h, 24 h treatment, formazan quantification

Row | Compound | Ka rLTR4-5′Cy5 FQA ([1]; +10µM ds26) | Kd ([1]; +10µM ds26) [µM] | Ka rLTR4-5′Cy5 FQA ([1]; No ds26) | Kd ([1]; No ds26) [µM] | ΔT1/2 LTR4 ([2]; +10µM ds26) [°C] | ΔT1/2 LTR4 ([2]; No ds26) | EC50 (HeLa P4 cells; [3]) [µM] | EC50 (HeLa P4 cells; HeLaP4, 24 h) [µM] | EC50 (HeLa P4 cells; 24 h treatment, formazan quantification) [µM]
1 | COc1ccc2c(ccc3c2cc2c4ccc(OC)cc4ccc2[n+]3-c2ccccc2)c1 [DBA1] | 1.1±0.06 10^5 M | 8.9 ± 1.8 | 1.8±0.07 10^5 M | 5.5 ± 1.5 | 10±0.5 | 11±0.2 °C | 5.2 |  | 
2 | COc1ccc2c(ccc3c2cc2c4ccc(OC)cc4ccc2[n+]3-c2ccc([N+](=O)[O-])cc2)c1 [DBA4] | 1.2±0.05 10^5 M | 8.4 ± 2.1 | 2.3±0.1 10^5 M | 4.4 ± 1 | 10±0.7 | 11±0.5 °C and 11 °C | ~15 | 15.4 | 
3 | COc1ccc(-[n+]2c3ccc4cc(OC)ccc4c3cc3c4ccc(OC)cc4ccc32)cc1 [DBA3] | 0.9±0.07 10^5 M | 11.1 ± 1.4 | 1.2±0.06 10^5 M | 8.7 ± 1.6 | 10.2±0.3 | 10.6±0.7 °C | 4.3 |  | 
4 | c1ccc(-[n+]2c3ccc4ccccc4c3cc3c4ccccc4ccc32)cc1 [DBA5] | 1.1±0.04 10^5 M | 9.5 ± 2.6 | 1.6±0.07 10^5 M | 6.2 ± 1.4 | 6.0±1.3 |  | 16.7 |  | ~15
5 | COC(=O)c1ccc(-[n+]2c3ccc4cc(OC)ccc4c3cc3c4ccc(OC)cc4ccc32)cc1 [DBA2] | 0.9±0.03 10^5 M | 11.6 ± 3.8 | 1.1±0.03 10^5 M | 9.3 ± 2.9 | 7.3±0.4 | 9.4±0.3 °C | 2.9 |  | 

Source: paper PMC13334477 (RSC Medicinal Chemistry, 2026)
